Assay results: PubChem BioAssay AID179 (DTP/NCI, 2004)
“And” between values parts separate entries of the source, which are not always exact repeats. Equal entries are not always repeated. The source made the active and inactive calls.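 How the source made its calls: active means compounds giving half or more protection of infected cells from virus-caused growth loss, again on retest; inactive means the rest.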 Where a SMILES comes first, the peptide text is derived from it. [ ]: non-standard residue; d: D form. The star is where a group is joined. Phe(4-NO2) = N[CH](Cc1ccc([N+](=O)[O-])cc1)C(=O)O; Cbz = O=C(OCc1ccccc1)*

Tested on: CEM cells HIV-1 protection, formazan growth assay
Test: NCI AIDS Antiviral Assay
Details: for IC50: measured here: growth of uninfected CEM cells
Summary of the method: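 Screen of anti-HIV-1 activity in human CEM cells using a formazan-based growth measurement at five drug concentrations. Hits with 50% or greater protection were repeated, and confirmation required reproducible complete protection.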

Cc1ccc(-n2cc(-c3ccc(Cl)cc3)c(C#N)c2N)cc1
EC50: > 200 µM
IC50: 22.4 µM

CC(=O)NS(=O)(=O)c1ccc(NC(=O)c2ccccc2SC(=O)CCCCBr)cc1
EC50: 12.3 µM
IC50: 148 µM

CN(C)CCCNC(=O)c1cc(NC(=O)c2cc(NC(=O)c3cc(NC(=O)c4ccnc(C(=O)Nc5cc(C(=O)Nc6cc(C(=O)Nc7cc(C(=O)NCCCN(C)C)n(C)c7)n(C)c6)n(C)c5)c4)cn3C)cn2C)cn1C
EC50: > 100 µM
IC50: > 100 µM

CC(=O)OC1CCC2(C)C(CCC3C4CC=C(C(C)=O)C4(C)OC(=O)CC32)C1 (configuration not stated)
outcome: inactive

C=C(C)[C@@H]1CC[C@]2(C(=O)O)CC[C@]3(C)[C@H](CC[C@@H]4[C@@]5(C)CC[C@H](O)C(C)(C)[C@@H]5CC[C@]43C)[C@@H]12
EC50: > 200 µM
IC50: 20.9 µM

COc1ccc(NC(=O)C2=C(SC)C(C#N)C(=O)N=C2N)cc1 (configuration not stated)
EC50: > 200 µM
IC50: 44.7 µM

O=c1c2c(oc3cc(OCC4CO4)ccc13)CCC2 (configuration not stated)
EC50: > 200 µM
IC50: 50.1 µM

c1ccc2c(c1)c(N1CCCCC1)cc1nc3c(cc(N4CCCCC4)c4ccccc43)nc12
EC50: > 100 µM
IC50: > 100 µM

CCCCNC(=S)Nc1nc(C(=O)NNC(=S)NC2CCCCC2)cs1
EC50: > 200 µM
IC50: 170 µM

CC1=CC(C/C(C)=C/COc2ccc3ccc(=O)oc3c2)OC1=O (configuration not stated)
EC50: > 3.24 µM
IC50: > 3.24 µM

COC1(C(C)(C)C)C=C(C(C)(C)C)P(=O)(O)O1 (configuration not stated)
EC50: > 200 µM
IC50: > 200 µM

COc1ccc(C2(OC)Oc3ccccc3-c3nc4ccccc4nc32)cc1 (configuration not stated)
EC50: > 69.2 µM
IC50: > 69.2 µM

O=[N+]([O-])c1ccc(N2CCOS(=O)OCC2)cc1
EC50: > 200 µM
IC50: > 200 µM

Cc1cc(NC(=O)C(=O)Cc2nc3ccccc3s2)ccc1Cl
EC50: > 20.9 µM
IC50: > 20.9 µM

COC1(OC)CCCCCCCCC(OC)(OC)CCCCCCCC1
EC50: > 200 µM
IC50: > 200 µM

CSc1ccc(C2OC(=O)c3ccccc32)c2ccccc12 (configuration not stated)
EC50: > 17 µM
IC50: > 17 µM

COc1ccc2c(C(=O)O)cc3cc(OC)c(OC)cc3c2c1
outcome: inactive

O=C(NCCCCCCCCCCCCNC(=O)c1cnc2ccccc2n1)c1cnc2ccccc2n1
EC50: > 4.9 µM
IC50: > 4.9 µM

CCC(=O)C1(N2CCOCC2)CCN(CCCC(=O)c2ccc(F)cc2)CC1
EC50: > 200 µM
IC50: > 200 µM

CN=C1Nc2ccc(Cl)cc2C(c2ccccc2)=NN1C
EC50: > 120 µM
IC50: 93.3 µM

O=C(NC(=Nc1ccccc1)SCSC(=Nc1ccccc1)NC(=O)c1c(Cl)cccc1Cl)c1c(Cl)cccc1Cl
EC50: > 200 µM
IC50: 14.1 µM

O=C(Cc1ccccc1)NC(=O)Nc1ccccc1
EC50: > 20.4 µM
IC50: > 20.4 µM

CCOC(=O)C1C/C2=C(/CCCCCCCCCC2)SCCCS1 (configuration not stated)
EC50: > 200 µM
IC50: 26.9 µM

CCCc1nc2c(nc1C)C(=O)C=CC2=O
EC50: > 832 µM
IC50: 17 µM

CCOC(=O)C[C@H]1C(=O)C[C@@H]2C[C@@H](C)CC(=O)[C@@]21CCC#N
outcome: inactive

COP(=O)(OC)C(=O)N1N(c2ccc([N+](=O)[O-])cc2)C(=O)C(C)NC1(NNc1ccc([N+](=O)[O-])cc1)P(=O)(OC)OC (configuration not stated)
EC50: > 107 µM
IC50: 56.2 µM

CC1(CC2=C(C(=O)NCCO[Si](C)(C)C(C)(C)C)C3(OCCO3)C2=O)OCCO1
EC50: > 200 µM
IC50: > 200 µM

O=C1c2ccccc2C(=O)N1CCN(CCN1C(=O)c2ccccc2C1=O)Cn1cccn1
outcome: inactive

N#Cc1c(N=Cc2ccccc2)c(C(=O)Nc2ccccc2)n2c1CCC2
EC50: > 50.1 µM
IC50: > 50.1 µM

O=c1/c(=C/c2ccccc2[N+](=O)[O-])sc2nc3ccccc3n12
EC50: > 3.24 µM
IC50: > 3.24 µM

O=c1c2cc(Br)ccc2ncn1COCc1ccccc1
EC50: > 200 µM
IC50: 89.1 µM

CCc1cccc(CC)c1NC(=S)NC(=O)c1ccc(Br)cc1
EC50: > 18.2 µM
IC50: > 18.2 µM

CN(C)C=Nc1c(I)cc(I)c(CCC(=O)O)c1I
EC50: > 200 µM
IC50: > 200 µM

O=C1NC(=O)/C(=C/c2ccc(S(=O)(=O)N/N=C/c3ccc(Cl)cc3)cc2)N1
EC50: > 200 µM
IC50: 123 µM

COCCOCCOCCOCCOCCOCCOCCOCCOCCOCCOCCOCCOCCOCCOCCOCCOCC(=O)N(CCn1cnc2nc(NC(=O)c3ccccc3)[nH]c(=O)c21)CCn1cnc2nc(NC(=O)c3ccccc3)[nH]c(=O)c21
EC50: 1.32 µM
IC50: 47.9 µM

Cn1cnc(N)c(N=O)c1=O
EC50: > 200 µM
IC50: > 200 µM

CC(C)(C)OC(=O)C(C#N)C(=O)c1ccc(C(=O)O)[nH]1 (configuration not stated)
EC50: > 200 µM
IC50: 23.4 µM

c1ccc(SSc2ccccn2)nc1
EC50: > 200 µM
IC50: 5.13 µM

COc1ccc2c3c([nH]c2c1[N+](=O)[O-])C(C)N(C)CC3 (configuration not stated)
outcome: inactive

O=c1c2cc([N+](=O)[O-])cnc2sn1-c1ccc([N+](=O)[O-])cc1
EC50: > 200 µM
IC50: 63.1 µM

CCOC1CC2OC(=O)C1C=C2C(=O)OC (configuration not stated)
outcome: inactive

CCOC(=O)CC(=O)ON(C)C(C)=O
EC50: > 251 µM
IC50: > 251 µM

CN1Cc2c(N)cccc2C(c2ccccc2)C1 (configuration not stated)
outcome: inactive

O=S(=O)(O)C(=Nc1cccc(Cc2ccccc2)c1)Nc1cccc(Cc2ccccc2)c1
EC50: > 200 µM
IC50: 14.8 µM

O=Cc1c(O)c2ccccc2[nH]c1=O
EC50: > 5.5 µM
IC50: > 5.5 µM

CC1(C)CCC2=C(O1)c1ccccc1C(=O)C2=O
EC50: > 200 µM
IC50: 0.912 µM and 1.07 µM

CC1=Nc2cc(C(=O)c3ccccc3)ccc2N=C(c2c(O)c3c(ccc4ccccc43)oc2=O)C1
EC50: > 20 µM
IC50: > 20 µM

CCOC(=O)CN1CCC(C(O)c2cc3ccccc3[nH]2)CC1 (configuration not stated)
EC50: > 537 µM
IC50: 525 µM

O=S(=O)(c1ccccc1)C1CN(Cc2ccccc2)CCN(Cc2ccccc2)C1
outcome: inactive

CC1C=C[C@H](Sc2ccccc2)CC[C@@]1(C)O (some centres not stated)
EC50: > 251 µM
IC50: 22.4 µM

c1ccc(-c2nnc(SCc3nc4ccccc4[nH]3)o2)cc1
EC50: > 200 µM
IC50: 31.6 µM

CCOC(=O)C1(Cc2ccc3c(c2)CCC3)Cc2cc3c(cc2C1)CCC3
EC50: > 200 µM
IC50: 15.5 µM

CC/C(=C(\c1ccccc1)c1ccc(OCCN(C)C)cc1)c1ccccc1
EC50: > 83.2 µM
IC50: 14.8 µM

CC(=O)OC12CCCC(=O)C1C1CC/C=C\CCC12 (configuration not stated)
EC50: > 170 µM
IC50: 105 µM

COc1c(C)cc(Cc2cc(C)c(OC)c(Br)c2)cc1Br
EC50: > 200 µM
IC50: 91.2 µM

COc1cc2noc(-c3ccccc3)c2cc1OC
outcome: inactive

c1ccc(CSCSCc2ccccc2)cc1
outcome: inactive

O=C(O)CC1CC=CCC1CC(=O)O (configuration not stated)
EC50: > 200 µM
IC50: > 200 µM

CC(C)(NC(=O)C(C)(C)NC(=O)OCc1ccccc1)C(=O)O (HELM PEPTIDE1{[O=C(OCc1ccccc1)[*:2]].[Aib].[Aib]}$$$$V2.0)
EC50: > 200 µM
IC50: > 200 µM

CCOC(=O)c1nc2ccc(C(F)(F)F)cc2nc1Oc1ccc(F)cc1
EC50: > 200 µM
IC50: > 200 µM

COc1cc2cc(C(=O)N3CC(CCl)c4ccc([N+](C)(C)Cc5ccccc5[N+](=O)[O-])cc43)[nH]c2c(OC)c1OC (configuration not stated)
EC50: > 20 µM
IC50: 2.24 µM

CCOC(=O)CCC(NC(=O)OCc1ccccc1)C(=O)NC(CCC(=O)OCC)C(=O)NC(CCC(=O)OCC)C(=O)NC(CCC(=O)OCC)C(=O)NC(CCC(=O)OCC)C(=O)NC(Cc1ccc([N+](=O)[O-])cc1)C(=O)NC(CCC(=O)OCC)C(=O)NC(CCC(=O)OCC)C(=O)NC(CCC(=O)OCC)C(=O)NC(CCC(=O)OCC)C(=O)NC(CCC(=O)OCC)C(=O)OCC (configuration not stated) (Cbz-E(OEt)E(OEt)E(OEt)E(OEt)E(OEt)[Phe(4-NO2)]E(OEt)E(OEt)E(OEt)E(OEt)E(OEt)-OEt; configuration not given here)
EC50: > 50.1 µM
IC50: > 50.1 µM

CC(=O)Nc1ccc(C(=O)CCC(NC(C)=O)(C(=O)O)C(=O)O)cc1
EC50: > 200 µM
IC50: > 200 µM

CCC1(CC)c2ccccc2C(CC)(CC)[N+]1(C)C
EC50: > 200 µM
IC50: 85.1 µM

COc1ccccc1NC(=O)/C(C=NC(=S)c1ccncc1)=C(\C)O
outcome: inactive

COc1ccc2oc(=N)c(C(=O)Nc3ccccc3)cc2c1
EC50: > 200 µM
IC50: 12 µM

Cc1nc2ccccc2c(=O)n1/N=C/c1ccc(N(C)C)cc1
EC50: > 200 µM
IC50: > 200 µM

O=P1(c2ccccc2)C(c2ccccc2)=CC=C1c1ccccc1
EC50: > 200 µM
IC50: 7.41 µM

Cc1ccc(OCC2OC(n3cnc4c(Cl)nc(Nc5cc(Cl)cc(Cl)c5)nc43)CC2Oc2ccc(C)cc2)cc1 (configuration not stated)
EC50: > 200 µM
IC50: > 200 µM

Cn1cnc([N+](=O)[O-])c1Sc1nccn1-c1cccc2ccccc12
EC50: > 102 µM
IC50: 13.2 µM

CC12CCCC(C#N)(C1)OC2=O (configuration not stated)
outcome: inactive

CCOC(=O)C1C(c2ccc3c(c2)OCO3)c2c([nH][nH]c2=O)CC1(C)O (configuration not stated)
EC50: > 200 µM
IC50: > 200 µM

NC(CSS(=O)(=O)O)=NCCSS(=O)(=O)O
EC50: > 200 µM
IC50: 110 µM

CN(C)C(=O)OC1C(=O)N(C)c2ccc(Cl)cc2C2(c3ccccc3)N1C2(Cl)Cl (configuration not stated)
EC50: > 200 µM
IC50: 10.7 µM

CC(C)C(C(=O)O)n1[se]c2ccccc2c1=O (configuration not stated)
EC50: 15.5 µM
IC50: 120 µM

CCN(CC)C(=S)/N=C(\SC(=S)N(CC)CC)c1ccccc1
EC50: > 132 µM
IC50: 52.5 µM

CC1(C)C(=O)CC[C@@]2(C)C1CC[C@]1(C)C2CC=C2[C@@H]3C[C@](C)(C(=O)O)CC[C@]3(C)CCC21C (some centres not stated)
EC50: > 200 µM
IC50: 95.5 µM

COC(=O)CCNc1c2ccccc2nc2cccc([N+](=O)[O-])c12
EC50: > 0.2 µM
IC50: 0.0794 µM

CCCCNS(=O)(=O)c1ccc(-c2c3nc(c(-c4ccc(S(=O)(=O)NCCCC)cc4)c4ccc([nH]4)c(-c4ccc(S(=O)(=O)NCCCC)cc4)c4nc(c(-c5ccc(S(=O)(=O)NCCCC)cc5)c5ccc2[nH]5)C=C4)C=C3)cc1
EC50: > 200 µM
IC50: > 200 µM

COc1ccc(-c2c(-c3ccccc3)c(C)nc3[nH]c(=S)[nH]c(=S)c23)cc1OC
EC50: > 200 µM
IC50: 43.7 µM

O=C1OC(C2Cc3ccccc3C2=O)c2ccccc21 (configuration not stated)
EC50: > 200 µM
IC50: 186 µM

Clc1ccc(CSc2cnnc3c(Br)cccc23)c(Cl)c1
EC50: > 24.5 µM
IC50: > 24.5 µM
